Values quoted from earlier work as cited in patent US20190254579A1, “INTEGRATED DEVICES TO CONTINUOUSLY MEASURE BOUND AND UNBOUND ANALYTE FRACTIONS IN BIOFLUIDS” (Eccrine Systems, Inc., priority 2015, published 2019).
Converted amounts (≈) assume the structure as drawn. Like-named read-outs stand apart in the source and are kept apart here.

Assays:
[1] = water/octanol

logP [1]	Solubility in Water (stated in words)	Solubility in Water [µg/mL]	Structure (SMILES)
5.6			CCCCC/C=C\C/C=C\CCCCCCCC(=O)OC(CO)CO [2-Linoleoyl Glycerol]
7	Negligible		CCCCC/C=C\C/C=C\C/C=C\C/C=C\CCCC(=O)O [Arachidonic Acid]
5.1			CCCC/C=C\CCCCCCCC(=O)O [Myristoleic Acid]
6.4	Low		CCCCCC/C=C\CCCCCCCC(=O)O [Palmitoleic Acid]
8.3			CC(C)CCCC(C)CCCC(C)CCCC(C)CC(=O)O (stereo not shown) [Phytanic Acid]
5.7		3460 (≈ 11.6 mM)	CCCCCC[C@@H](O)C/C=C\CCCCCCCC(=O)O [Ricinoleic Acid]

Structure (SMILES)	logP [1]	Solubility in Water (stated in words)	Solubility in Water [µg/mL]
CCCCCCCC/C=C\CCCCCCCC(=O)O [Oleic Acid]	7.64		
